Test results: PubChem BioAssay (NCI)
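Assay format: 96-well plates, 48-hour exposure. Definition used: TGI = concentration required for complete inhibition of growth.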

Legend:
Assay in all cases: NCI-60 cell line screen, 48 h
SK-MEL-2 melanoma = tested on: SK-MEL-2 melanoma
SW-620 colon = tested on: SW-620 colon
MDA-MB-435 = tested on: MDA-MB-435
HCC-2998 colon = tested on: HCC-2998 colon
SF-539 CNS = tested on: SF-539 CNS
MCF7 breast = tested on: MCF7 breast
SN12C renal = tested on: SN12C renal
NCI-H23 lung = tested on: NCI-H23 lung
MOLT-4 leukemia = tested on: MOLT-4 leukemia
HCT-116 colon = tested on: HCT-116 colon
OVCAR-5 ovarian = tested on: OVCAR-5 ovarian
CCRF-CEM leukemia = tested on: CCRF-CEM leukemia
K-562 leukemia = tested on: K-562 leukemia
SK-OV-3 ovarian = tested on: SK-OV-3 ovarian
HOP-92 NSCLC = tested on: HOP-92 NSCLC
CAKI-1 renal = tested on: CAKI-1 renal
NCI-H226 lung = tested on: NCI-H226 lung
NCI-H522 lung = tested on: NCI-H522 lung
RXF 393 renal = tested on: RXF 393 renal
UO-31 renal = tested on: UO-31 renal
COLO 205 colon = tested on: COLO 205 colon
U251 CNS = tested on: U251 CNS
SNB-19 CNS = tested on: SNB-19 CNS
SK-MEL-28 melanoma = tested on: SK-MEL-28 melanoma
MDA-N = tested on: MDA-N
HOP-62 NSCLC = tested on: HOP-62 NSCLC
786-0 renal = tested on: 786-0 renal
DU-145 prostate = tested on: DU-145 prostate
OVCAR-4 ovarian = tested on: OVCAR-4 ovarian
SK-MEL-5 melanoma = tested on: SK-MEL-5 melanoma
HT29 colon = tested on: HT29 colon
ACHN renal = tested on: ACHN renal
EKVX NSCLC = tested on: EKVX NSCLC
OVCAR-8 ovarian = tested on: OVCAR-8 ovarian
HL-60(TB) leukemia = tested on: HL-60(TB) leukemia
HS 578T breast = tested on: HS 578T breast
MDA-MB-231 breast = tested on: MDA-MB-231 breast
A549 NSCLC = tested on: A549 NSCLC
SR leukemia = tested on: SR leukemia
NCI-H460 lung = tested on: NCI-H460 lung
UACC-257 melanoma = tested on: UACC-257 melanoma
PC-3 prostate = tested on: PC-3 prostate
RPMI-8226 leukemia = tested on: RPMI-8226 leukemia
HCT-15 colon = tested on: HCT-15 colon
SF-268 CNS = tested on: SF-268 CNS
SF-295 CNS = tested on: SF-295 CNS
SNB-75 CNS = tested on: SNB-75 CNS
LOX IMVI melanoma = tested on: LOX IMVI melanoma
M14 melanoma = tested on: M14 melanoma
KM12 colon = tested on: KM12 colon
BT-549 breast = tested on: BT-549 breast
OVCAR-3 ovarian = tested on: OVCAR-3 ovarian
T-47D breast = tested on: T-47D breast
MALME-3M melanoma = tested on: MALME-3M melanoma
TK-10 renal = tested on: TK-10 renal
NCI/ADR-RES ovarian = tested on: NCI/ADR-RES ovarian
UACC-62 melanoma = tested on: UACC-62 melanoma
IGROV1 ovarian = tested on: IGROV1 ovarian
A498 renal = tested on: A498 renal

Measured: TGI

Cn1c(=O)cc(NNc2ccccc2)[nH]c1=O
49.9 µM: KM12 colon
48.1 µM: RPMI-8226 leukemia
42.1 µM: OVCAR-8 ovarian
31.7 µM: U251 CNS
65.9 µM: TK-10 renal
30 µM: 786-0 renal
38.9 µM: T-47D breast
85.7 µM: IGROV1 ovarian
28.3 µM: LOX IMVI melanoma
33.6 µM: RXF 393 renal
29.1 µM: HT29 colon
75.9 µM: MALME-3M melanoma
89.9 µM: M14 melanoma
33.5 µM: MDA-MB-231 breast
90.4 µM: CCRF-CEM leukemia
30.4 µM: OVCAR-3 ovarian
29.2 µM: CAKI-1 renal
31.6 µM: HCT-116 colon
12.8 µM: MCF7 breast
56.8 µM: HL-60(TB) leukemia
60.4 µM: SK-MEL-28 melanoma
75 µM: MDA-MB-435
57.8 µM: SR leukemia
31.3 µM: SW-620 colon
28.9 µM: NCI-H522 lung
30.1 µM: HCT-15 colon
44.7 µM: HOP-92 NSCLC
> 100 µM: all other assays above

c1cc(-c2ccsc2-c2ccsc2)cs1
> 59.1 µM: SK-MEL-2 melanoma
> 89 µM: MOLT-4 leukemia
> 72.5 µM: MDA-N
> 85.5 µM: RXF 393 renal
> 74.9 µM: SR leukemia
99.7 µM: KM12 colon
> 71.7 µM: NCI-H226 lung
> 82.9 µM: MDA-MB-435
> 100 µM: all other assays above
